{"source": "patent US12281301B2", "about": "“Sequencing-based proteomics” (THE BROAD INSTITUTE, INC., priority 2018, dated 2025)", "type_in_all_cases": "cell-based, human", "key": {"[1]": {"system": "library of tagged HEK293T cells", "assay": "SBP/PATTERNS protein quantification (FACS binning and tag/barcode sequencing) of drug-treated versus untreated control cells", "conditions": "for number of proteins significantly affected, by PATTERNS: 6 hours stated for Bortezomib", "description": "Library-scale RNP-mediated gene tagging. On day one, 18 million HEK293T NeoR-KO cells were plated per 15-cm dish into 32 dishes. On day two, 4 ml of scaled-up transfection mix (see above) were gently added per dish. On day seven, cells were trypsinized and re-plated in media containing 300 μg/ml G418 (Invivogen). The selection media was changed every 4-8 days. On day 25, the library was pre-enriched for detectable fluorescence by FACS sorting, gating on the top-30% mNeon-positive population. The library was expanded for a week and frozen for future use.\nTransposition-based Tag Integration Site Sequencing (TTISS). 800,000 cells were resuspended in 80 μl direct lysis buffer (1 mM CaCl2), 3 mM MgCl2, 1 mM EDTA, 1% Triton X-100, 10 mM Tris pH 7.5, 0.2 mg/ml Proteinase K), lysed at 65° C. for 10 minutes, and kept on ice or frozen at −20° C. 25 μl 5×TAPS buffer (50 mM TAPS-NaOH pH 8.5, 25 mM MgCl2), and 21 μl transposon-loaded Tn5 (16 mg/ml, produced as described in Picelli, S. et al. Tn5 transposase and tagmentation procedures for massively scaled sequencing projects. Genome Res 24, 2033-2040, doi: 10.1101/gr.177881.114 (2014), titrated batch-wise for optimal fragment sizes) were added, mixed well, and incubated at 55° C. for 10 minutes. The reaction was mixed with 625 μl buffer PB (Qiagen) and purified using a plasmid miniprep column (Qiagen). Typical yields were 15 μg per column. The tagmentation size distribution was verified on an agarose gel to range from 200 bp to 1 kb. All DNA from a single column was used as template in a 300 μl KOD extreme hot start PCR (Roche) with primers TTISS-mNeon-fwd1 and Tn5-Loading-R2 (Table 1), 12 cycles, Ta=60° C. 6 μl of PCR reaction was used as template in a secondary 50 μl KOD extreme hot start PCR with a unique combination of barcoded primers TTISS-mNeon-fwd2-D50× and TTISS-rev2-D70x(Table 1), 20 cycles, Ta=65° C. Barcoded PCRs were pooled on ice, purified using a PCR column (Qiagen), and run on an agarose gel. Products of 250 bp-1 kb were excised, purified using a gel purification kit (Qiagen), and re-purified using a PCR column (Qiagen). Samples were quantified using a NanoDrop spectrometer and sequenced using a NextSeq High Output kit (Illumina) with 30% PhiX spike-in and the following read settings: 120 cycles read 1, 25 cycles read 2, 8 cycles index 1, and 8 cycles index 2.\nAlternatively, 22 bp forward (fwd) reads and 8 bp reverse (rev) reads were aligned to 1 kb windows of the human genomic sequence (hg38) upstream of gRNA target sites not allowing mismatches, and hits were filtered to be in-frame with the annotated ORF (RefSeq). For gRNA-wise protein quantification, counts per gRNA from six adjacent sorted bins were used to calculate the weighted mean bin and variance. For UMI-based evaluation, a dictionary of UMIs was created per sequencing run by calculating a 28-bit hash of nine UMI bases together with one constant donor base and 22 target bases from successfully aligned fwd reads using the same alignment parameters as for gRNA-wise protein quantification. The hash was used to count UMI occurrences and store UMI sequence/target information in an array with typically below 10 conflicts per run. UMIs were collapsed with an edit distance of 1 in order to account for sequencing errors. The UMI dictionary was used to count bin- and UMI-wise reads using the same hash function. Counts per UMI from six adjacent sorted bins were used to calculate the weighted mean bin and variance. All software was written as interactive web tools in JavaScript and will be available through GitHub.\nFACS sorting. Cells were trypsinized, washed in FluoroBrite DMEM Media (Thermo) and sorted using a Sony MA900 (where not denoted otherwise) or a MoFlo Astrios sorter (for […], SKMEL28 screens) using a 488 nm laser. Cells were collected in 1 ml growth medium and kept on ice until pelleting and lysis.\nDe-convolution of sorted libraries using Silent Barcode Sequencing. […]"}, "[2]": {"system": "HEK293T cells", "assay": "TMT labeling whole proteome mass spectrometry, drug-treated versus untreated control cells", "description": "Mass spectrometry. Cells were grown and stimulated in 10 cm dishes, washed three times in cold PBS, and scraped into 1 ml 8 M urea in water per dish. Protein content of the lysates was quantified using Pierce 660 reagent and a NanoDrop spectrometer. Samples were reduced, iodoacetamide alkylated, digested with Trypsin, labeled with 10-plex TMT (VWR cat no PI90110), and combined. After SPE clean-up and volume reduction by SpeedVac, the combined sample was run on a C18 reverse phase LC using a pH 10 A buffer, and eight fractions were collected. The volume was reduced to 20 μl by SpeedVac. Each fraction was run on an EASY nLC HPLC attached to a Thermo QE-HFX mass spectrometer in nanospray configuration using a 90 minutes acquisition time. Proteins were quantified using the MaxQuant software package.\nStatistical analysis. Mass spectrometry reporter intensity data were imported into Perseus software, log-2-transformed, and filtered for missing values as well as reverse peptides or potential contaminants. Data were median-subtracted and significant outliers were determined by performing two-sided unpaired t-tests, correcting for multiple testing using an FDR=5% and s0=0.1, performing 250 randomizations. PATTERNS mean protein level bin data were processed in the same way except without the filtering and normalization steps. Volcano plots were generated using the Perseus software, and all other plots were created using custom code."}, "[3]": {"system": "clonal mNeon-tagged reporter cell lines", "assay": "FACS of clonal mNeon-tagged reporter cell lines after drug stimulation", "description": "(§1) Analytical flow cytometry. For optional genomic DNA staining, 1/20 volume of Hoechst 33342 (10 mg/ml, Thermo) was added to live cells for 15 minutes at 37° C. Cells were washed in PBS, trypsinized, resuspended in media, and analyzed on a CytoFLEX (Beckman Coulter) in 96-well plate mode."}, "[4]": {"system": "HEK293T cells", "assay": "Immunoblotting validation of predicted drug-regulated proteins", "conditions": "time points after drug treatment", "description": "Immunoblotting. Cells were lysed in 6-well plates in 400 μl 2×LDS buffer (Thermo) supplemented with 2×Bolt reducing agent (Thermo), heated to 95° C. for 15 minutes, and cooled on ice. 9 μl lysate was loaded per lane of Bolt 4-12% Bis-Tris Plus gels (Thermo) and run at 100 V for 1:15 h. Blotting was performed using the iBlot PVDF kit (Thermo) and program P-3 for 4 minutes. After blocking for 1 h in TBST 5% BSA, primary antibodies were bound over night at 4° C. in TBST 5% BSA. After triple washing, HRP-conjugated secondary antibodies (Cell Signaling Technology) were bound at 1:5000 dilution in TBST 5% BSA for 1 h at room temperature. Blots were imaged using Pierce ECL (Thermo) on a Chemidoc luminescence imager (Biorad). Primary antibodies used were: RBM39 clone 4G8 (Novus Biologicals), DDIT4 clone EPR18716 (Abcam), BRD2 clone D89B4 (Cell Signaling Technology), RRM2 clone 1E1 (Sigma), HRP-coupled beta-Actin clone 13E5 (Cell Signaling Technology), and cell cycle antibody cocktail (ab136810, Abcam)."}, "[5]": {"system": "HEK293T cells", "assay": "RNA-sequencing transcript expression, drug-treated versus untreated control cells", "description": "RNA-seq. Whole-cell RNA was purified using an RNeasy Plus Mini Kit (Qiagen). Poly (A) mRNA was enriched using the Poly(A) mRNA Magnetic Isolation Module (NEB). Sequencing libraries were prepared using the NEBNext Ultra II Directional RNA Library Prep kit (NEB), quantified using a NanoDrop (Thermo), and sequenced on the NextSeq sequencer (Illumina). Reads were aligned to the human genome and gene expression was quantified using the online tool BrowserGenome.org (Schmid-Burgk, J. L. & Hornung, V. BrowserGenome.org: web-based RNA-seq data analysis and visualization. Nat Methods 12, 1001, doi: 10.1038/nmeth.3615 (2015))."}, "[6]": {"system": "MSH6", "assay": "MSH6-mNeonGreen reporter cell line assayed by FACS", "conditions": "for MSH6-mNeonGreen expression after application of single compounds: single compounds at 125 nM for 6 h", "description": "as §1"}, "[7]": {"system": "PRKDC", "assay": "PRKDC-mNeonGreen reporter cells assayed by FACS", "conditions": "125 nM, indicated time points", "description": "as §1"}, "[8]": {"conditions": "drug-treated vs untreated control cells"}}, "note": "“Also recorded” adds a separate entry of the source.", "data": [{"smiles": "NS(=O)(=O)c1ccc(S(=O)(=O)Nc2cccc3c(Cl)c[nH]c23)cc1", "note": "[Indisulam]", "values": [{"measurement": "effect size of the next potentially depleted protein by SBP", "setting": "[1]; drug vs DMSO control, comparison with RBM39", "value": "−0.37", "unit": "bins"}, {"measurement": "RBM39 effect size (change of mean protein expression bin) by SBP", "setting": "[1]; drug vs DMSO control, six sorted expression bins, two replicate runs", "value": "−2.1", "unit": "bins"}, {"measurement": "RBM39 protein level change by SBP/PATTERNS", "setting": "[1]; drug-treated vs control tagged library", "value": "highly specific depletion"}, {"measurement": "significantly depleted proteins by SBP/PATTERNS (specificity)", "setting": "[1]; two replicates, FDR 5%", "value": "only significantly depleted protein"}, {"measurement": "RBM39 down-regulation by TMT whole proteome mass spectrometry", "setting": "[2]; strong but not statistically significant hit", "value": 2, "unit": "fold"}, {"measurement": "RBM39 depletion validated by FACS of a clonal reporter cell line", "setting": "[3]; stimulated for six hours", "value": "confirmed"}, {"measurement": "RBM39 depletion validated by western blot", "setting": "[4]", "value": "confirmed"}, {"measurement": "RBM39 RNA level", "setting": "[5]; [8]", "value": "no significant change"}]}, {"smiles": "Cc1ncsc1-c1ccc(CNC(=O)[C@@H]2C[C@@H](O)CN2C(=O)[C@@H](NC(=O)COCCOCCOCCNC(=O)C[C@@H]2N=C(c3ccc(Cl)cc3)c3c(sc(C)c3C)-n3c(C)nnc32)C(C)(C)C)cc1", "note": "[MZ-1]", "values": [{"measurement": "BRD protein family members degraded, by PATTERNS", "setting": "[1]; HEK293T library", "value": "degradation of two BRD protein family members, BRD2 and BRD3"}, {"measurement": "number of proteins significantly affected, by PATTERNS", "setting": "[1]; HEK293T library", "value": 20, "unit": "proteins"}, {"measurement": "BRD2 protein level change by SBP", "setting": "[1]; drug vs DMSO control", "value": "significant decrease"}, {"measurement": "BRD4 in mass spectrometry analysis", "setting": "[2]; BRD4 not represented in the SBP library", "value": "not statistically significant hit"}, {"measurement": "BRD2 down-regulation by mass spectrometry", "setting": "[2]; strong albeit not statistically significant hit", "value": 2.3, "unit": "fold"}, {"measurement": "BRD2 decrease validated by FACS of clonal reporter cell line", "setting": "[3]; stimulated for six hours", "value": "confirmed"}, {"measurement": "BRD2 decrease validated by western blot", "setting": "[4]", "value": "confirmed"}, {"measurement": "BRD2 identification by RNA-Seq", "setting": "[5]; [8]", "value": "could not be identified"}]}, {"smiles": "CC(C)C[C@H](NC(=O)[C@H](Cc1ccccc1)NC(=O)c1cnccn1)B(O)O", "note": "[Bortezomib]", "values": [{"measurement": "DDIT4 level by PATTERNS", "setting": "[1]; HEK293T library, 6 hours, change may be non-specific", "value": "affected"}, {"measurement": "number of proteins significantly affected, by PATTERNS", "setting": "[1]; HEK293T library", "value": 55, "unit": "proteins"}, {"measurement": "DDIT4 level change (mean protein expression bin) by SBP", "setting": "[1]; topmost change, not statistically significant in the SBP data", "value": "+1.6 bins"}, {"measurement": "DDIT4 quantification by quantitative mass spectrometry", "setting": "[2]; [8]", "value": "failed to quantify"}, {"measurement": "outlier / upregulated proteins by TMT whole proteome mass spectrometry", "setting": "[2]; drug-treated vs untreated control cells, triplicate", "value": "ATF3 and JUN; also recorded: two upregulated proteins"}, {"measurement": "PATTERNS hits DDIT4, ID1, ID2 and JUN validated by FACS of reporter cell lines", "setting": "[3]", "value": "confirmed"}, {"measurement": "DDIT4 regulation in clonal mNeon-tagged reporter cell line by FACS", "setting": "[3]; stimulated for six hours", "value": "confirmed"}, {"measurement": "DDIT4 increase validated by western blot", "setting": "[4]", "value": "confirmed"}, {"measurement": "PATTERNS hits DDIT4, ID1, ID2 and JUN validated by western blot", "setting": "[4]", "value": "confirmed"}, {"measurement": "DDIT4 identification as target by RNA-Seq", "setting": "[5]; [8]", "value": "could not identify"}, {"measurement": "PATTERNS hits regulated at the transcript level (RNA-sequencing)", "setting": "[5]; of the 55 PATTERNS hits", "value": "only GADD45B"}]}, {"smiles": "CC1(C)CC(=O)c2c(C(F)(F)F)nn(-c3ccc(C(N)=O)c(N[C@H]4CC[C@H](O)CC4)c3)c2C1", "note": "[SNX2112, SNX-2112]", "values": [{"measurement": "kinetics of the reduction of MSH6 levels", "setting": "[6]; 125 nM, indicated time points", "value": "significant depletion in MSH6 levels in under two hours"}, {"measurement": "MSH6-mNeonGreen expression after application of single compounds", "setting": "[6]", "value": "downregulation"}, {"measurement": "kinetics of the reduction of PRKDC levels", "setting": "[7]", "value": "also observed"}]}, {"smiles": "CCc1c(O)cc(O)c(C(=O)c2ccc(OCCN3CCOCC3)c(OC)c2)c1CC(=O)N(CCOC)CCOC.Cl", "note": "[KW-2478]", "values": [{"measurement": "MSH6-mNeonGreen expression after application of single compounds", "setting": "[6]", "value": "downregulation"}]}, {"smiles": "CC1(C)CC(=O)c2c(C(F)(F)F)nn(-c3ccc(C(N)=O)c(N[C@H]4CC[C@H](OC(=O)CN)CC4)c3)c2C1", "note": "[SNX-5422]", "values": [{"measurement": "MSH6-mNeonGreen expression after application of single compounds", "setting": "[6]", "value": "downregulation"}]}]}
